Values after ≈ are worked out from the molar mass of the structure shown. Counter-ions that a name gives are not always drawn. Like-named read-outs stand apart in the source and are kept apart here.
Tests used:
mast cells of the lungs = settings: upon inhalation; J. Med. Chem. 15: 583 [1972]; cited from earlier work
[1] = system: passive cutaneous anaphylaxis in rats (PCA), mediator liberation; assay: passive cutaneous anaphylaxis in rats (PCA), inhibition of allergic reaction; assay type: in vivo; settings: iv, rat PCA, i.v.
Procedure: For this purpose, rats are passively sensitized by the intracutaneous injection of various dilutions (1:8 and 1:16) of a standardized IgE-containing hyperimmune serum. After 48 hours, the compound to be tested, dissolved as the sodium salt in a physiological NaCl solution, and ovalbumin as the allergen, combined with a dye to better measure the local allergic reaction, are administered intravenously.
The measurement determines the inhibition of the allergic reaction in the presence of the test compound as compared with the allergic reaction without the inhibiting agent.

[2] = system: Diplococcus pneumoniae and a series of strains of Staphylococcus aureus; assay: in vitro series dilution test, antibacterial effect (summary over all bacteria); assay type: cell-based; settings: in words
Excerpt: (§1) The antibacterial effect can be measured in vitro in a series dilution test.

carrageenin test = assay: carrageenin test, antiinflammatory effect; assay type: in vivo
Excerpt: The inflammation-inhibitory effect can be measured by the carrageenin test (Winter, C. A., E. A. Risley and G. W. Nuss, Proc. Soc. Exp. Biol. Med. 111: 544-547 [1962]).

[3] = system: Staphylococcus aureus 30-8; assay: in vitro series dilution test, antibacterial effect; assay type: cell-based; settings: 308; Staphylococcus aureus 30-8, in vitro; read-out: Minimum Inhibitory Concentration
Excerpt: as §1

[4] = system: Staphylococcus aureus 30-107; assay: as above; assay type: cell-based; settings: 30107; Staphylococcus aureus 30-107, in vitro; read-out: Minimum Inhibitory Concentration
Excerpt: as §1

[5] = system: Staphylococcus aureus 30-3; assay: as above; assay type: cell-based; settings: 303; Staphylococcus aureus 30-3, in vitro; read-out: Minimum Inhibitory Concentration
Excerpt: as §1

[6] = system: Staphylococcus aureus 30-53; assay: as above; assay type: cell-based; settings: 3053; Staphylococcus aureus 30-53, in vitro; read-out: Minimum Inhibitory Concentration
Excerpt: as §1

[7] = system: Staphylococcus aureus 30-2; assay: as above; assay type: cell-based; settings: 302; Staphylococcus aureus 30-2, in vitro; read-out: Minimum Inhibitory Concentration
Excerpt: as §1

[8] = system: Staphylococcus aureus 30-64; assay: as above; assay type: cell-based; settings: 3064; Staphylococcus aureus 30-64, in vitro; read-out: Minimum Inhibitory Concentration
Excerpt: as §1

[9] = system: Staphylococcus aureus 30-109; assay: as above; assay type: cell-based; settings: 30109; Staphylococcus aureus 30-109, in vitro; read-out: Minimum Inhibitory Concentration
Excerpt: as §1

Diplococcus pneumoniae = assay: as above; assay type: cell-based; settings: Streptococcus pneumoniae, read-out: Minimum Inhibitory Concentration
Excerpt: as §1

[10] = IgE serum dilution 1:8, dissolved as the sodium salt, read-out: % Inhibition, IgE 1:8
[11] = IgE serum dilution 1:16, dissolved as the sodium salt, read-out: % Inhibition, IgE 1:16

O=C(O)c1cc(=O)c2c(OCC(O)COc3cccc4oc(C(=O)O)cc(=O)c34)cccc2o1 [sodium salt of cromoglycic acid]
inhibition of liberation of mediators triggering bronchoconstriction, such as histamine and SRS-A (mast cells of the lungs): inhibit the liberation of mediators triggering bronchoconstriction

CCCCn1cc(C(=O)O)c(=O)c2ccc(OCC(O)COc3ccc4c(=O)c(C(=O)O)cn(CCCC)c4c3)cc21 [1,3-Bis(1-butyl-3-carboxy-1,4-dihydro-4-oxo-7-quinolyloxy)-2-propanol]
inhibition at 10 mg/kg [1, 10]: 71% | inhibition at 10 mg/kg [1, 11]: 85%

O=C(O)c1cc(=O)c2c(OCC(O)COc3cccc4oc(C(=O)O)cc(=O)c34)cccc2o1 [Cromoglycic Acid, reference compound]
antibacterial activity [2]: ineffective against all bacteria investigated | antiinflammatory activity (carrageenin test; in words): only an extremely weak efficacy, or even no corresponding efficacy at all | inhibition at 10 mg/kg (carrageenin test; iv, 10 mg./kg.): 10% | inhibition at 75 mg/kg (carrageenin test; po, 75 mg./kg.): 0% | inhibition at 5 mg/kg [1, 10]: 63% | inhibition at 5 mg/kg [1, 11]: 67% | inhibition at 10 mg/kg [1, 10]: 60% | inhibition at 10 mg/kg [1, 11]: 84% | MIC [3]: > 100 µg/mL | MIC [4]: > 100 µg/mL | MIC [5]: > 100 µg/mL | MIC [6]: > 100 µg/mL | MIC [7]: > 100 µg/mL | MIC [8]: > 100 µg/mL | MIC [9]: > 100 µg/mL | MIC (Diplococcus pneumoniae): > 100 µg/mL

CCn1cc(C(=O)O)c(=O)c2ccc(OCC(O)COc3ccc4c(=O)c(C(=O)O)cn(CC)c4c3)cc21 [1,3-Bis(1-ethyl-3-carboxy-1,4-dihydro-4-oxo-7-quinolyloxy)-2-propanol]
inhibition at 5 mg/kg [1, 10]: 59% | inhibition at 5 mg/kg [1, 11]: 69% | inhibition at 10 mg/kg [1, 10]: 84% | inhibition at 10 mg/kg [1, 11]: 90% | MIC [3]: 12.5 µg/mL (≈ 23.9 µM) | MIC [4]: 50 µg/mL (≈ 95.7 µM) | MIC [5]: 12.5 µg/mL (≈ 23.9 µM) | MIC [6]: 50 µg/mL (≈ 95.7 µM) | MIC [7]: 25 µg/mL (≈ 47.8 µM) | MIC [8]: 50 µg/mL (≈ 95.7 µM) | MIC [9]: 25 µg/mL (≈ 47.8 µM) | MIC (Diplococcus pneumoniae): 50 µg/mL (≈ 95.7 µM)

Cn1cc(C(=O)O)c(=O)c2ccc(OCC(O)COc3ccc4c(=O)c(C(=O)O)cn(C)c4c3)cc21 [1,3-Bis(3-carboxy-1,4-dihydro-1-methyl-4-oxo-7-quinolyloxy)-2-propanol]
inhibition at 5 mg/kg [1, 10]: 62% | inhibition at 5 mg/kg [1, 11]: 69%

1,3-Bis(1-ethoxy-3-carboxy-1,4-dihydro-4-oxo-7-quinolyloxy)-2-propanol
% Inhibition (carrageenin test; i.v., 10 mg./kg.): 44% | % Inhibition (carrageenin test; p.o., 75 mg./kg.): 28%

Reference: US4289777A, “Quinolonecarboxylic acid derivatives and pharmaceutical preparations thereof for treatment of an allergic disease of the respiratory tract” (Schering, Aktiengesellschaft, priority 1978, dated 1981)
